Data set [1] deals with thymus, spleen, adrenal gland and kidney. The data set can be described thus: Organ weights (thymus, spleen, adrenal gland, kidney) after three-month treatment. It counts as in vivo, B6 male mice. The settings on record: s.c. 1 mg/kg daily, three months. The method, then: B6 male mice (8-week-old) were daily subjected for three months to a subcutaneous injection of either vehicle (NaCl 0.9%), Dex, CpdX, CpdX(eA), CpdX(eB), CpdX-D3, CpdX-D3(eA) or CpdX-D3(eB) (1 mg/kg body weight, diluted in vehicle). Following these treatments, four organs (thymus, spleen, adrenal gland and kidney) were harvested and weighted.

Data set [2] is described as follows: Blood insulin, intraperitoneal insulin tolerance test (IPITT) and liver western blot after three-month treatment. It counts as in vivo, B6 male mice. The settings on record: three months. The method, then: B6 male mice (8-week-old) were subjected daily for three months to a subcutaneous injection of either vehicle (NaCl 0.9%), Dex, CpdX, CpdX(eA), CpdX(eB), CpdX-D3, CpdX-D3(eA) or CpdX-D3(eB) (1 mg/kg body weight, diluted in vehicle). After three months, the blood was collected at 10 a.m. by retro-orbital puncture in lithium-heparin coated vials, and the plasmatic level of insulin was determined.
For the intraperitoneal insulin tolerance test (IPITT), mice were fasted for 6 hours before test. The blood glucose concentration was measured both before (To) and during a one-hour period after insulin i.p. injection (0.75 U/kg body weight).
Following this three-month treatment, liver samples were harvested and lysed in the RIPA buffer (20 mM Tris pH 8, 150 mM NaCl, 10% glycerol, 1% NP-40 and 2 mM EDTA). Antibodies from Cell Signaling were used to assess by Western-Blotting the relative level of p-IRS1 (S318), IRS-1, p-AKT (S473) and AKT.
(In general: Immunoblotting shows a protein as a band on a membrane.)

A further data set concerns liver. As to the kind of experiment: Fatty liver after three-month treatment (red oil staining, q-RT-PCR, plasma cholesterol and bile acids). It counts as in vivo, B6 male mice. The settings on record: three months. Here is the method: B6 male mice (8-week-old) were daily subjected for three months to a subcutaneous injection of either vehicle (NaCl 0.9%), Dex, CpdX, CpdX(eA), CpdX(eB), CpdX-D3, CpdX-D3(eA) or CpdX-D3(eB) (1 mg/kg body weight, diluted in vehicle). Following this treatment, blood was collected at 10 a.m. by retro-orbital puncture in lithium-heparin coated vials. The plasmatic levels of total cholesterol and bile acids were determined.
Liver samples were harvested. […] RNA transcripts were extracted from liver samples and the transcripts of fatty acid synthase (FASN) and Stearoyl-CoA desaturase 1 (SCD1) genes were analyzed by q-RT-PCR.

A short description of data set [3]: Body weight and body composition after three-month treatment (pDEXA). It counts as in vivo, B6 male mice. The settings on record: s.c. 1 mg/kg daily, 3 months. Here is the method: B6 male mice (8-week-old) were daily subjected for three months to a subcutaneous injection of either vehicle (NaCl 0.9%), Dex, CpdX or CpdX-D3 (1 mg/kg body weight, diluted in vehicle. A pDEXA machine was used to determine the lean mass and fat mass. The statistical significance was calculated through Krustal-Walis test followed by a Dunn's multiple comparison test, *p<0.05; **p<0.01; ***p<0.001.

Data set [4] in a line: Blood glucose and intraperitoneal glucose tolerance test (IPGTT) after three-month treatment. To be noted: three months. The format is in vivo, B6 male mice. Here is the method: B6 male mice (8-week-old) were daily subjected for three months to a subcutaneous injection of either vehicle (NaCl 0.9%), Dex, CpdX, CpdX(eA), CpdX(eB), CpdX-D3, CpdX-D3(eA) or CpdX-D3(eB) (1 mg/kg body weight, diluted in vehicle). Mice were over-night-fasted. Mouse blood glucose concentration was measured before (To) and during two hours (T120) after glucose i.p. injection ([…]).

The subject of data set [5] is mouse tibia cortical bone and femur trabecular bone. As to the kind of experiment: Cortical and trabecular bone formation after three-month treatment (micro-CT, Wnt16 q-RT-PCR). The format is in vivo, B6 male mice. To be noted: s.c. 1 mg/kg daily, three months. Here is the method: B6 male mice (8-week-old) were daily subjected for three months to either a subcutaneous injection of vehicle (NaCl 0.9%), Dex, CpdX, CpdX(eA), CpdX(eB), CpdX-D3, CpdX-D3(eA) or CpdX-D3(eB) (1 mg/kg body weight, diluted in NaCl 0.9%).
From each animal included in the experiments, one femur and the ipsilateral tibia were dissected and preserved in 70% ethanol for further bone microstructure analysis by micro-CT. The FX Quantum micro-CT scanner (Perkin Elmer) was used to perform measurements at the distal femur and midshaft tibia. All scans were performed with an isotropic voxel size of 10 μm, 160 μA tube current and 90 kV tube voltage.
Morphological 3D measurements were performed using the CTAn software (Bruker). Cortical bone parameters, which were measured in the tibia midshaft, included measures of the bone volume fraction as compared to the total volume, cortical thickness, total area, bone area and marrow area. […] Trabecular bone parameters were measured in the distal metaphysis of the femurs and included bone volume fraction, trabecular thickness, trabecular number and trabecular spacing. […]
The statistical significance as compared to vehicle treatment was calculated through one-way ANOVA test followed by Dunn's multiple comparison test, *p<0.05; **p<0.01; ***p<0.001; ****p<0,0001.

Data set [6] has as its system dorsal skin of Balb/C mice. The data set can be described thus: Skin epidermis atrophy after 8-day topical treatment of dorsal skin. It counts as in vivo. The source says:
To investigate whether, similarly to Dex, a topical administration of CpdX could result in a skin atrophy, Balb/C mice were shaved on the dorsal skin. Ethanol (vehicle), Dex, CpdX or either one of its two enantiomers CpdX(eA) or CpdX(eB), as well as the deuterated form CpdX-D3 or either one of its two enantiomers CpdX-D3(eA) or CpdX-D3(eB), were topically applied onto the dorsal skin for 8 days.
Upon completion of the treatments, RNA transcripts were extracted from dorsal skin samples and the transcripts of Kindlin-1 and REDD1 genes were analyzed by q-RT-PCR. Histological and morphometric analyses of the dorsal skin were also performed.

For a further data set, the system named is adrenal glands. As to the kind of experiment: Corticosterone synthesis and adrenal gland after three-month treatment. The format is in vivo, B6 male mice. The settings on record: three months. Here is the method: B6 male mice (8-week-old) were daily subjected for three months to either a subcutaneous injection of vehicle (NaCl 0.9%), Dex, CpdX, CpdX(eA), CpdX(eB), CpdX-D3, CpdX-D3(eA) or CpdX-D3(eB) (1 mg/kg body weight, diluted in vehicle).
Following this long-term treatment, blood was collected at 10 a.m. and 6 p.m. by retro-orbital puncture in lithium-heparin coated vials, and the plasmatic level of corticosterone was determined. Adrenal glands were harvested and weighted. RNA transcripts were extracted and transcripts of the Cyp11a, Cyp11b1, Cyp11b2 and HSD3β genes were analyzed by q-RT-PCR. Histological analyses of the adrenal glands were also carried out.

Data set [7] concerns the target T1, GR (Homo sapiens, UniProt P04150).
T1 sequence (P04150 1-777): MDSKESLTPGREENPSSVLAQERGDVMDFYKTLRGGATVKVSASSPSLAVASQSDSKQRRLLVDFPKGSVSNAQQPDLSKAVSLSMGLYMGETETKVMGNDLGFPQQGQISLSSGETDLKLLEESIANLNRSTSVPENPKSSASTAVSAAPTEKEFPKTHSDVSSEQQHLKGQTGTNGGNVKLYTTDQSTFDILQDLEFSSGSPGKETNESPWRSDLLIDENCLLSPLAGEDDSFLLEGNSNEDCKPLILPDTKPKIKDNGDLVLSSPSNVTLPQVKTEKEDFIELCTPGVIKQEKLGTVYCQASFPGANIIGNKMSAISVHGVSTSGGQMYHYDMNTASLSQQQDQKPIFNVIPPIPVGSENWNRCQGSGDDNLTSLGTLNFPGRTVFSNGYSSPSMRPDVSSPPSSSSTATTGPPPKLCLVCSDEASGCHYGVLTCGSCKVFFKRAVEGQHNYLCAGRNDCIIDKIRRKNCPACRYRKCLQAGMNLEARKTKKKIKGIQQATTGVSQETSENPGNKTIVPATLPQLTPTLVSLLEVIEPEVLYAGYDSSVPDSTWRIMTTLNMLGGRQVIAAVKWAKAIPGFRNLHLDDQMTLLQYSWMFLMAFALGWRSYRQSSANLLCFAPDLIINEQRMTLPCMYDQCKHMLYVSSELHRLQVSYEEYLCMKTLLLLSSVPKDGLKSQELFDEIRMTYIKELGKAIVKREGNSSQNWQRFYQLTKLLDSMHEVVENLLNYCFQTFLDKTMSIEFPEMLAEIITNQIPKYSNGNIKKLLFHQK
To be noted: cited from earlier work.

Data set [8] has as its target T2, GR (Rattus norvegicus, UniProt P06536).
T2 sequence (P06536 1-795): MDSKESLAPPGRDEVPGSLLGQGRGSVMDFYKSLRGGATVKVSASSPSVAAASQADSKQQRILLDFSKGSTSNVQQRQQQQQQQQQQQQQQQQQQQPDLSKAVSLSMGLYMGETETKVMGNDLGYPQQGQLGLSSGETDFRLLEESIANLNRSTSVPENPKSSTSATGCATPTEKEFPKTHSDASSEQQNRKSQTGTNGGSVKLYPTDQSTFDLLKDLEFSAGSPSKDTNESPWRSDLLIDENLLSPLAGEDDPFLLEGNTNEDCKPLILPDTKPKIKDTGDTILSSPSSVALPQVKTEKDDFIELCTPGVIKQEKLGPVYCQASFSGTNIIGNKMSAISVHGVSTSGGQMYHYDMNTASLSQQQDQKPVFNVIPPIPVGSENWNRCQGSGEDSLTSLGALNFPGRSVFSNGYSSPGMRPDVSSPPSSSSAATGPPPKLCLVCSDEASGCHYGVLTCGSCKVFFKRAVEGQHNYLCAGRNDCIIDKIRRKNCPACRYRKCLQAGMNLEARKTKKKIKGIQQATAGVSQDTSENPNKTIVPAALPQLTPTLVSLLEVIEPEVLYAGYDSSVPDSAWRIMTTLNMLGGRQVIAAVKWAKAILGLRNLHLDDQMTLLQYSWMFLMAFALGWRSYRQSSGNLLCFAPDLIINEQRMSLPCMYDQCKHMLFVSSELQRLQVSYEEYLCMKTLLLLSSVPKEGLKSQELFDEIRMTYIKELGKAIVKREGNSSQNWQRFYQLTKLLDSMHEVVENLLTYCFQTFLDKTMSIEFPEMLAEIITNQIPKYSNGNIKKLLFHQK
To be noted: cited from earlier work.

Take `C[C@@H]1C[C@H]2[C@@H]3CCC4=CC(=O)C=C[C@]4(C)[C@@]3(F)[C@@H](O)C[C@]2(C)[C@@]1(O)C(=O)CO` [Dex, Dexamethasone, reference compound]: in data set [1], the “decrease of the spleen weight” value is “more than 50%” and the “thymus apoptosis (thymus weight)” value is given as “no thymus was found in sixteen out of nineteen mice”. Further, the “blood insulin level (hyperinsulinemia)” value in [2] (s.c. 1 mg/kg daily, 10 a.m.) is “hyperinsulinemia”. Further, in data set [2], the “phosphorylated insulin receptor substrate 1 (p-IRS1 S318) in liver extracts (western blot)” value was “decrease” and the “phosphorylation of protein kinase B (p-AKT S473) in liver extracts (western blot)” value was “decreased”. In addition, the “response to insulin in IPITT” value in data set [2] (insulin i.p. 0.75 U/kg) is “significant impaired response to insulin”. In addition, in the data set with liver (s.c. 1 mg/kg daily), the “lipid deposition in the liver (5% red oil staining)” value was “marked lipid deposition”. In addition, the “blood cholesterol and bile acids' levels” value in the data set on liver (10 a.m.) is reported as “clear increase”. In the data set with liver (q-RT-PCR), the “transcripts of fatty acid synthase (FASN) and Stearoyl-CoA desaturase 1 (SCD1) in liver” value is recorded as “increase”. Moreover, the “body weight, change from baseline” value in [3] was “net loss”. Further, in [3] (pDEXA), the “fat mass / fat percentage, change from baseline” value is listed as “disproportional increase” and the “lean mass / lean percentage, change from baseline” value is recorded as “decrease”. Also, the “blood glucose level after over-night fasting” value in data set [4] (s.c. 1 mg/kg daily) is “significantly higher”. The “blood glucose level during two-hour IPGTT” value in data set [4] (glucose i.p. injection) is listed as “significant higher”. Moreover, the “decrease of the transcription of the WNT16 gene in tibia” value in data set [5] is listed as 50%. Besides, the “bone volume as compared to the total volume, tibia cortical bone” value in [5] (micro-CT) is on record as “significantly decreased”. In [6] (eight-day topical treatment), the “decrease of the epidermal thickness (morphometric analyses)” value is 65% and the “skin atrophy (histological analysis)” value was “severely induces a skin atrophy”. In data set [6] (topical 1 nmole/cm^2, 8 days), the “transcription of the Kindlin-1 gene (nGRE) in dorsal skin” value is “strongly decreased” and the “transcription of the REDD1 gene (+GRE) in dorsal skin” value was “significantly increased”. In addition, in the data set with adrenal glands (s.c. 1 mg/kg daily), the “cortex layers, most notably the fasciculata zone, of the adrenal glands (histology)” value is listed as “drastically decreased”. In addition, the “transcripts of Cyp11a, Cyp11b1 and HSD3β genes in adrenal glands (corticosterone synthesis pathway)” value with adrenal glands (s.c. 1 mg/kg daily, q-RT-PCR) is “inhibited”. The “glomerulosa zone of the adrenal cortex (histology)” value in the data set on adrenal glands was “drastically decreased”. Further, the “transcript of the Cyp11b2 gene in adrenal glands (aldosterone synthesis pathway)” value with adrenal glands (q-RT-PCR) was “inhibited”. Moreover, in the data set with adrenal glands (vs Vehicle), the “plasmatic corticosterone level at 6 p.m.” value was “much lower” and the “plasmatic corticosterone level at 10 a.m.” value is “much lower”.
For the compound `C[C@@H]1C[C@H]2[C@@H]3CCC4=CC(=O)C=C[C@]4(C)[C@@]3(F)[C@@H](O)C[C@]2(C)[C@H]1C(=O)CC#N` [RU24858], the “dissociated profile (transrepression vs transactivation) in vitro” value at GR [7] is reported as “exhibit such an expected dissociated profile”. Besides, on GR [8], the “dissociation upon administration in vivo” value is recorded as “failed to confirm this dissociation”.

Source of the values: patent US11179363B2, “Non-steroidal selective glucocorticoid receptor agonistic modulators (SEGRAMs) and uses thereof” (ASSOCIATION POUR LA RECHERCHE À L'IGBMC (ARI), priority 2017, dated 2021).
